Data published in PMC4764322, “An Unusual Member of the Papain Superfamily: Mapping the Catalytic Cleft of the Marasmius oreades agglutinin (MOA) with a Caspase Inhibitor” (PLoS ONE, 2016).
Residues, ends and D or L forms follow the SMILES beside them. *: point of attachment. Cbz = O=C(OCc1ccccc1)*; CH2F = FC*

Tests used:
[1] = molecular target: T1, Marasmius oreades agglutinin (MOA) (Marasmius oreades, UniProt Q8X123); assay: X-ray crystal structure (co-crystal, […]-1.[…] Å); assay type: binding; details: calcium, imidazole pH 8.0
T1 construct: wild-type full-length 293 aa cDNA (MOApT7-LO), E. coli BL21(DE3), no tag mentioned; homodimer; model residues 2-293, Met1 probably cleaved

[2] = molecular target: the molecule itself; assay: crystal structure; MOA 5 mg/ml mixed with Galα1,3(Fucα1,2)Gal trisaccharide (1:20) and Z-VAD-fmk (1:3, 1:20 or 1:30 MOA:inhibitor); 0.1 M imidazole pH 8.0, 10-16% PEG 8000, 0.2 M calcium acetate, with or without 5% DMSO; space group P6(3)22; three data sets (ZVAD-direct, ZVAD-inverted, ZVAD-dual)

C[C@@H]1O[C@@H](O[C@H]2C(O)O[C@H](CO)[C@H](O)[C@@H]2O[C@H]2O[C@H](CO)[C@H](O)[C@H](O)[C@H]2O)[C@@H](O)[C@H](O)[C@@H]1O (stereo partly drawn) [Galα1,3(Fucα1,2)Gal trisaccharide] was tested, and the “X-ray crystal structure (co-crystal, 1.6-1.7 Å)” value ([1]; three lectin-domain sugar sites (α, β, γ), 1:20 MOA:sugar) was “The three sugar binding sites of MOA show a different preference for the anomeric form”.

For CC(C)[C@H](NC(=O)OCc1ccccc1)C(=O)N[C@@H](C)C(=O)N[C@@H](CC(=O)O)C(=O)CF [Z-VAD-fmk] (Cbz-Val-Ala-Asp-CH2F), the “X-ray crystal structure (co-crystal, 1.6-1.7 Å)” value ([1]; covalent, thioether with catalytic Cys215, direct and inverted orientations) was “the inhibitor molecule binds to the active site of MOA forming a thioether”.

B1: Marasmius oreades agglutinin (MOA), wild type (enzyme)
chain: MSLRRGIYHIENAGVPSAIDLKDGSSSDGTPIVGWQFTPDTINWHQLWLAEPIPNVADTFTLCNLFSGTYMDLYNGSSEAGTAVNGWQGTAFTTNPHQLWTIKKSSDGTSYKIQNYGSKTFVDLVNGDSSDGAKIAGWTGTWDEGNPHQKWYFNRMSVSSAEAQAAIARNPHIHGTYRGYILDGEYLVLPNATFTQIWKDSGLPGSKWREQIYDCDDFAIAMKAAVGKWGADSWKANGFAIFCGVMLGVNKAGDAAHAYNFTLTKDHADIVFFEPQNGGYLNDIGYDSYMAFY
notes: Marasmius oreades agglutinin, wild-type cDNA in vector MOApT7-LO; 293 amino acids; Homodimer; one protomer in the asymmetric unit, the dimer arises by crystallographic symmetry; source: E. coli BL21 (DE3), purified (D-Gal-sepharose, cation exchange, size exclusion)
B1: binds [2].
